Data published in US7705016B2, “Regulation of food intake by modulation of long-chain fatty acyl-CoA levels in the hypothalamus” (Albert Einstein College of Medicine of Yeshiva University, priority 2003, dated 2010).

Target: T1, hypothalamic CPT1 (Rattus norvegicus, UniProt P32198)
T1 sequence (P32198 1-773): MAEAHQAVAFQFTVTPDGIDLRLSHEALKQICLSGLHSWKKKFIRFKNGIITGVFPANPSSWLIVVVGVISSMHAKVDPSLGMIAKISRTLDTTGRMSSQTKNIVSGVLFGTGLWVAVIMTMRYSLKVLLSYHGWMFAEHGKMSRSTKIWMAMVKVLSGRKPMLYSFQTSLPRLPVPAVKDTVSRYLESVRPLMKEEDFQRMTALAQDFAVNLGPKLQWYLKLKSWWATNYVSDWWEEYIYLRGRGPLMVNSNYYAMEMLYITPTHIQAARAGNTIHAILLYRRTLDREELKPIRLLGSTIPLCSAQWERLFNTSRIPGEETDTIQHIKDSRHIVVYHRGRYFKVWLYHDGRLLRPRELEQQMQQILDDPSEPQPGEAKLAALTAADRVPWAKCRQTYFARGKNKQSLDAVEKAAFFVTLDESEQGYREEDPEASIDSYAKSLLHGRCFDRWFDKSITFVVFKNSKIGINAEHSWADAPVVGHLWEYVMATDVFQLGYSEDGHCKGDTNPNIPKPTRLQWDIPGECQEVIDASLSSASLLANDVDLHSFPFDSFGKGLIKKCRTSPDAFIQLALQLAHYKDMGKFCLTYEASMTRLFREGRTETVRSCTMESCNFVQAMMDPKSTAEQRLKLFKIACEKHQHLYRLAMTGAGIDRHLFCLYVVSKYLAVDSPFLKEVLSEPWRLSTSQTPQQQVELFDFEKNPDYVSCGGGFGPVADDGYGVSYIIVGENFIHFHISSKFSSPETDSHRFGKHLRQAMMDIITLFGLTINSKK
Test: ICV infusion with pancreatic-insulin clamp, glucose kinetics (Example 1)
Assay type: in vivo
Design: CPT1 activity was measured in the particulate fraction of protein extracts from animals treated with ICV control injections; from tissue; host or cells: hypothalamus (arcuate nucleus) of male Sprague-Dawley rats, in vivo or ex vivo; Insulin (iU/ml): unit not given here
Conditions: for Food Intake: measured prior to acute ICV infusion, except CPT1L-Ribo group (3 days after ICV); for decrease in glucose production (GP): basal and equal insulin levels (~20 μU/ml), ICV; for glucose production (GP) during pancreatic clamp vs ICV vehicle controls: ~basal insulin concentrations, p<0.01
Method: Hypothalamic inhibition of CPT1 inhibits glucose production. Experiments were also designed to examine the effect of central inhibition of CPT-1 on whole body insulin action (FIG. 4a,b). Insulin action was assessed by a combination of ICV infusions with systemic pancreatic-insulin clamp studies (FIG. 4b). In these studies, the daily food intake was matched in the rats receiving ICV vector and ICV CPT1L-Ribo (Table 1). All rats also received an intra-arterial infusion of [3-^3H]-glucose for the last 4 hr of ICV infusion and a pancreatic/insulin clamp (insulin 1 mU/kg.min; somatostatin 3 μg/kg/min) during the last 2 hr of the study (Obici et al., 2002a; Obici et al., 2001). As expected in the presence of ˜basal circulating insulin levels (clamp procedure; Table 1), the rate of glucose infusion (GIR) required to maintain euglycemia was marginal in ICV control studies (vector-ST1340- or vehicle-infused animals; ˜0.8 mg/kg/min). By contrast, following ICV infusion of inhibitors of CPT-1 expression or activity glucose had to be infused at the rate of ˜5 mg/kg/min in order to prevent hypoglycemia. Thus, central inhibition of CPT-1 activity in the presence of fixed and basal insulin concentrations stimulates insulin action on glucose homeostasis.
Animal preparation for in vivo experiments. We studied ninety-three 10-week old male Sprague-Dawley rats (Charles River Breeding Laboratories, Wilmington, Mass.). Rats were housed in individual cages and subjected to a standard light-dark cycle. Three weeks prior to the in vivo studies, we placed a chronic catheter in the third cerebral ventricle by stereotaxic surgery (Obici et al., 2002a; Obici et al., 2001; Liu et al., 1998). One week before the pancreatic-insulin clamp protocols, we placed additional catheters in the right internal jugular and left carotid artery (Obici et al., 2001; Liu et al., 1998). All ICV solutions were dissolved in artificial cerebral spinal fluid (aCSF). Food intake was monitored daily.
Measurements of in vivo glucose kinetics and pancreatic-insulin clamp procedure. The infusion studies lasted a total of 360 min (FIG. 3a). Briefly, at t=0 min a primed-continuous ICV infusion of either CPT1 inhibitors or control solution was initiated and maintained for the remainder of the study. 2-tetradecylglydate (TDGA, a gift from Dr. Manuel Guzman) was dissolved in DMSO, diluted into aCSF (Harvard Apparatus) and infused ICV at a rate of 50 pmoles/hr. […] Prior to the pancreatic-insulin clamp studies, rats receiving ICV injection of either CPT1L-Ribo or vector control three days prior to the clamp procedure were randomized into two pair-fed experimental groups. A primed-continuous infusion of HPLC-purified [3-^3H]-glucose (New England Nuclear, Boston, Mass.; 40 μCi bolus, 0.4 μCi/min) was started at t=120 min and continued for the duration of the study (Obici et al., 2002a; Obici et al., 2001; Liu et al., 1998). Finally, a pancreatic-insulin clamp (Obici et al., 2002a; Obici et al., 2001; Liu et al., 1998) was initiated at t=240 min and lasted for 2 hours. This procedure involved the infusion of somatostatin (3 μg/kg/min), insulin (1 mU/kg/min), and glucose as needed to prevent hypoglycemia, or antibodies against C peptide (Linco) and Melanocortin Receptor type 2 (Chemicon). The rate of insulin infusion was designed to replace normal basal levels in postabsorptive rats.
Radioactivity of [^3H]glucose in plasma was measured from supernatants of Ba(OH)2 and ZnSO4 precipitates after evaporation to dryness for the removal of tritiated water (Somogyi pellet). The specific activity of tritiated water in plasma (Somogyi filtrate) was determined from the total counts of the protein-free supernatant before and after evaporation to dryness. Under steady state conditions for plasma glucose concentration, the rate of glucose disappearance (Rd) equals the rate of glucose appearance (Ra). […]

Insulin (Basal) [ng/mL]	Leptin (Basal) [ng/mL]	Compound	Body wt. (Basal) [g]	FFA (Basal) [mM]	Glucose (Basal) [mM]	Food Intake (Basal) [g]	FFA (Clamp, steady-state) [mM]	Glucose (Clamp, steady-state) [mM]	Insulin (iU/ml) (Clamp, steady-state)	decrease in glucose production (GP) [%]	glucose production (GP) during pancreatic clamp vs ICV vehicle controls
1.4 ± 0.2	0.9 ± 0.1	CCCCCCCCCCCCCCNC(=O)N[C@H](CC(=O)[O-])C[N+](C)(C)C [ST1326, (R)-N-(tetradecylcarbamoyl)-aminocarnitine]	302 ± 4	0.5 ± 0.1	8.1 ± 0.7	21 ± 2	0.4 ± 0.1	8.1 ± 0.8	21 ± 2	44±7	markedly inhibited GP
–	–	CPT1L-Ribo: plasmid (pTarget, CMV promoter) expressing a hammerhead ribozyme that specifically cleaves rat CPT1L mRNA, complexed to PEI for ICV injection (DNA CUGUACCAAAGAGCUGUAGAGUCCGUGAGGACGAAACGCCGCUCACAAUG)	277 ± 8	0.5 ± 0.1	8.2 ± 0.6	14 ± 2	0.4 ± 0.1	8.1 ± 0.5	21 ± 2	30±3	markedly inhibited GP
